In ChEMBL document CHEMBL3045835, “Comparative study of conventional and microwave-assisted synthesis of some Schiff bases and their potential as antimicrobial agents” (2012):
≈ marks a conversion by molar mass, not a printed value.

Tests used:
Type in all cases: functional
Pseudomonas aeruginosa [1] = test: Antibacterial activity against Pseudomonas aeruginosa MTCC 424 at 500 ug/ml after 18 hr by cup-plate method; conditions: MTCC 424, 18 h, read-out: DIZ
Pseudomonas aeruginosa [2] = test: Antibacterial activity against Pseudomonas aeruginosa MTCC 424 at 200 ug/ml after 18 hr by cup-plate method; conditions: MTCC 424, 18 h, read-out: DIZ
Pseudomonas aeruginosa [3] = test: Antibacterial activity against Pseudomonas aeruginosa MTCC 424 at 100 ug/ml after 18 hr by cup-plate method; conditions: MTCC 424, 18 h, read-out: DIZ
Micrococcus luteus [4] = test: Antibacterial activity against Micrococcus luteus MTCC 1538 at 1500 ug/ml after 18 hr by cup-plate method; conditions: MTCC 1538, 18 h, read-out: DIZ
Micrococcus luteus [5] = test: Antibacterial activity against Micrococcus luteus MTCC 1538 at 1000 ug/ml after 18 hr by cup-plate method; conditions: MTCC 1538, 18 h, read-out: DIZ
Micrococcus luteus [6] = test: Antibacterial activity against Micrococcus luteus MTCC 1538 at 500 ug/ml after 18 hr by cup-plate method; conditions: MTCC 1538, 18 h, read-out: DIZ
Micrococcus luteus [7] = test: Antibacterial activity against Micrococcus luteus MTCC 1538 at 200 ug/ml after 18 hr by cup-plate method; conditions: MTCC 1538, 18 h, read-out: DIZ
Micrococcus luteus [8] = test: Antibacterial activity against Micrococcus luteus MTCC 1538 at 100 ug/ml after 18 hr by cup-plate method; conditions: MTCC 1538, 18 h, read-out: DIZ
Bacillus pumilus [9] = test: Antibacterial activity against Bacillus pumilus MTCC 1456 at 1500 ug/ml after 18 hr by cup-plate method; conditions: MTCC 1456, 18 h, read-out: DIZ
Bacillus pumilus [10] = test: Antibacterial activity against Bacillus pumilus MTCC 1456 at 1000 ug/ml after 18 hr by cup-plate method; conditions: MTCC 1456, 18 h, read-out: DIZ
Bacillus pumilus [11] = test: Antibacterial activity against Bacillus pumilus MTCC 1456 at 500 ug/ml after 18 hr by cup-plate method; conditions: MTCC 1456, 18 h, read-out: DIZ
Bacillus pumilus [12] = test: Antibacterial activity against Bacillus pumilus MTCC 1456 at 200 ug/ml after 18 hr by cup-plate method; conditions: MTCC 1456, 18 h, read-out: DIZ
Bacillus pumilus [13] = test: Antibacterial activity against Bacillus pumilus MTCC 1456 at 100 ug/ml after 18 hr by cup-plate method; conditions: MTCC 1456, 18 h, read-out: DIZ
Bacillus subtilis [14] = test: Antibacterial activity against Bacillus subtilis MTCC 441 at 1000 ug/ml after 18 hr by cup plate method; conditions: MTCC 441, 18 h, read-out: DIZ
Bacillus subtilis [15] = test: Antibacterial activity against Bacillus subtilis MTCC 441 at 1500 ug/ml after 18 hr by cup plate method; conditions: MTCC 441, 18 h, read-out: DIZ
Bacillus subtilis [16] = test: Antibacterial activity against Bacillus subtilis MTCC 441 at 500 ug/ml after 18 hr by cup plate method; conditions: MTCC 441, 18 h, read-out: DIZ
Bacillus subtilis [17] = test: Antibacterial activity against Bacillus subtilis MTCC 441 at 200 ug/ml after 18 hr by cup plate method; conditions: MTCC 441, 18 h, read-out: DIZ
Bacillus subtilis [18] = test: Antibacterial activity against Bacillus subtilis MTCC 441 at 100 ug/ml after 18 hr by cup plate method; conditions: MTCC 441, 18 h, read-out: DIZ
Staphylococcus aureus [19] = test: Antibacterial activity against Staphylococcus aureus MTCC 1430 at 1500 ug/ml after 18 hr by cup-plate method; conditions: MTCC 1430, 18 h, read-out: DIZ
Staphylococcus aureus [20] = test: Antibacterial activity against Staphylococcus aureus MTCC 1430 at 1000 ug/ml after 18 hr by cup-plate method; conditions: MTCC 1430, 18 h, read-out: DIZ
Staphylococcus aureus [21] = test: Antibacterial activity against Staphylococcus aureus MTCC 1430 at 500 ug/ml after 18 hr by cup-plate method; conditions: MTCC 1430, 18 h, read-out: DIZ
Staphylococcus aureus [22] = test: Antibacterial activity against Staphylococcus aureus MTCC 1430 at 200 ug/ml after 18 hr by cup-plate method; conditions: MTCC 1430, 18 h, read-out: DIZ
Staphylococcus aureus [23] = test: Antibacterial activity against Staphylococcus aureus MTCC 1430 at 100 ug/ml after 18 hr by cup-plate method; conditions: MTCC 1430, 18 h, read-out: DIZ
Penicillium chrysogenum = test: Antifungal activity against Penicillium chrysogenum MTCC 161 after 24 hr by broth dilution method; conditions: MTCC 161, 24 h
Aspergillus niger = test: Antifungal activity against Aspergillus niger MTCC 2546 after 24 hr by broth dilution method; conditions: MTCC 2546, 24 h
Escherichia coli = test: Antibacterial activity against Escherichia coli MTCC 1573 after 24 hr by broth dilution method; conditions: MTCC 1573, 24 h
Pseudomonas fluorescens = test: Antibacterial activity against Pseudomonas fluorescens MTCC 2421 after 24 hr by broth dilution method; conditions: MTCC 2421, 24 h

Compound O=c1c(/C=N/c2nc[nH]n2)coc2ccccc12 has a zone of inhibition at 500 µg/mL (Pseudomonas aeruginosa [1]) of 16 mm, a zone of inhibition at 200 µg/mL (Pseudomonas aeruginosa [2]) of 15 mm and a zone of inhibition at 100 µg/mL (Pseudomonas aeruginosa [3]) of 14 mm. The zone of inhibition at 1500 µg/mL (Micrococcus luteus [4]) was 23 mm, the zone of inhibition at 1000 µg/mL (Micrococcus luteus [5]) was 18 mm and the zone of inhibition at 500 µg/mL (Micrococcus luteus [6]) was 16 mm. The zone of inhibition at 200 µg/mL (Micrococcus luteus [7]) was 15 mm, the zone of inhibition at 100 µg/mL (Micrococcus luteus [8]) was 11 mm and the zone of inhibition at 1500 µg/mL (Bacillus pumilus [9]) was 21 mm. The zone of inhibition at 1000 µg/mL (Bacillus pumilus [10]) was 19 mm, the zone of inhibition at 500 µg/mL (Bacillus pumilus [11]) was 17 mm and the zone of inhibition at 200 µg/mL (Bacillus pumilus [12]) was 16 mm. The zone of inhibition at 100 µg/mL (Bacillus pumilus [13]) was 14 mm, the zone of inhibition at 1000 µg/mL (Bacillus subtilis [14]) was 18 mm and the zone of inhibition at 1500 µg/mL (Bacillus subtilis [15]) was 20 mm. It also gave a zone of inhibition at 500 µg/mL (Bacillus subtilis [16]) of 17 mm, a zone of inhibition at 200 µg/mL (Bacillus subtilis [17]) of 16 mm and a zone of inhibition at 100 µg/mL (Bacillus subtilis [18]) of 12 mm. The zone of inhibition at 1500 µg/mL (Staphylococcus aureus [19]) was 19 mm, the zone of inhibition at 1000 µg/mL (Staphylococcus aureus [20]) was 17 mm and the zone of inhibition at 500 µg/mL (Staphylococcus aureus [21]) was 14 mm. For the same compound, the zone of inhibition at 200 µg/mL (Staphylococcus aureus [22]) was 13 mm, the zone of inhibition at 100 µg/mL (Staphylococcus aureus [23]) was 11 mm and the MIC (Penicillium chrysogenum) was 200 µg/mL (≈ 833 µM). It also gave an MIC (Aspergillus niger) of 200 µg/mL (≈ 833 µM), an MIC (Escherichia coli) of 400 µg/mL (≈ 1670 µM) and an MIC (Pseudomonas fluorescens) of 200 µg/mL (≈ 833 µM).
